# Measured values reported in ChEMBL document CHEMBL1201862, “PubChem BioAssay data set” (2004).
#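 Exposure lasted 48 hours, with cells grown in 96-well plates and compounds tested at five concentrations. Abbreviation: GI50, concentration required for 50% inhibition of growth.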 Activity calls are given as the source filed them. Cut-off read from the data, not from the text of the source: active = GI50 up to about 1.1 µM and inactive = higher.
# Experiments:
# Test in all cases: NCI anticancer screen, dose series, 48 h
# 786-0 = test system: 786-0
# A549 = test system: A549
# ACHN = test system: ACHN
# BT-549 = test system: BT-549
# CAKI-1 = test system: CAKI-1
# CCRF-CEM = test system: CCRF-CEM
# COLO 205 = test system: COLO 205
# DU-145 = test system: DU-145
# EKVX = test system: EKVX
# HCC 2998 = test system: HCC 2998
# HCT-116 = test system: HCT-116
# HCT-15 = test system: HCT-15
# HL-60 = test system: HL-60
# HOP-62 = test system: HOP-62
# HOP-92 = test system: HOP-92
# HT-29 = test system: HT-29
# Hs-578T = test system: Hs-578T
# IGROV-1 = test system: IGROV-1
# K562 = test system: K562
# KM12 = test system: KM12
# LOX IMVI = test system: LOX IMVI
# M14 = test system: M14
# MCF7 = test system: MCF7
# MDA-MB-231 = test system: MDA-MB-231
# MDA-MB-435 = test system: MDA-MB-435
# MDA-N = test system: MDA-N
# MOLT-4 = test system: MOLT-4
# Malme-3M = test system: Malme-3M
# NCI-H226 = test system: NCI-H226
# NCI-H23 = test system: NCI-H23
# NCI-H460 = test system: NCI-H460
# NCI-H522 = test system: NCI-H522
# NCI/ADR-RES = test system: NCI/ADR-RES
# OVCAR-4 = test system: OVCAR-4
# OVCAR-5 = test system: OVCAR-5
# OVCAR-8 = test system: OVCAR-8
# PC-3 = test system: PC-3
# RPMI-8226 = test system: RPMI-8226
# RXF 393 = test system: RXF 393
# SF-268 = test system: SF-268
# SF-295 = test system: SF-295
# SF-539 = test system: SF-539
# SK-MEL-28 = test system: SK-MEL-28
# SK-MEL-5 = test system: SK-MEL-5
# SK-OV-3 = test system: SK-OV-3
# SN12C = test system: SN12C
# SNB-19 = test system: SNB-19
# SNB-75 = test system: SNB-75
# SR = test system: SR
# SW-620 = test system: SW-620
# T47D = test system: T47D
# TK-10 = test system: TK-10
# UACC-257 = test system: UACC-257
# UACC-62 = test system: UACC-62
# UO-31 = test system: UO-31
# A498 = test system: A498
# OVCAR-3 = test system: OVCAR-3
# SK-MEL-2 = test system: SK-MEL-2
# U-251 = test system: U-251
compound,measurement,setting,value
O=C1N=C2SC=C(NC(=S)Nc3ccccc3)N2NC12c1ccccc1-c1ccccc12,GI50,786-0,> 10 µM (inactive)
same,GI50,A549,> 10 µM (inactive)
same,GI50,ACHN,9.4 µM (inactive)
same,GI50,BT-549,> 10 µM (inactive)
same,GI50,CAKI-1,> 10 µM (inactive)
same,GI50,CCRF-CEM,> 10 µM (inactive)
same,GI50,COLO 205,> 10 µM (inactive)
same,GI50,DU-145,> 10 µM (inactive)
same,GI50,EKVX,9.25 µM (inactive)
same,GI50,HCC 2998,> 10 µM (inactive)
same,GI50,HCT-116,> 10 µM (inactive)
same,GI50,HCT-15,> 10 µM
same,GI50,HL-60,> 10 µM (inactive)
same,GI50,HOP-62,> 10 µM (inactive)
same,GI50,HOP-92,> 10 µM (inactive)
same,GI50,HT-29,> 10 µM (inactive)
same,GI50,Hs-578T,> 10 µM (inactive)
same,GI50,IGROV-1,> 10 µM (inactive)
same,GI50,K562,> 10 µM (inactive)
same,GI50,KM12,> 10 µM (inactive)
same,GI50,LOX IMVI,> 10 µM (inactive)
same,GI50,M14,> 10 µM (inactive)
same,GI50,MCF7,> 10 µM (inactive)
same,GI50,MDA-MB-231,> 10 µM (inactive)
same,GI50,MDA-MB-435,> 10 µM (inactive)
same,GI50,MDA-N,> 10 µM (inactive)
same,GI50,MOLT-4,> 10 µM (inactive)
same,GI50,Malme-3M,> 10 µM (inactive)
same,GI50,NCI-H226,> 10 µM (inactive)
same,GI50,NCI-H23,> 10 µM (inactive)
same,GI50,NCI-H460,> 10 µM (inactive)
same,GI50,NCI-H522,> 10 µM (inactive)
same,GI50,NCI/ADR-RES,> 10 µM (inactive)
same,GI50,OVCAR-4,> 10 µM (inactive)
same,GI50,OVCAR-5,> 10 µM (inactive)
same,GI50,OVCAR-8,> 10 µM (inactive)
same,GI50,PC-3,> 10 µM (inactive)
same,GI50,RPMI-8226,> 10 µM (inactive)
same,GI50,RXF 393,> 10 µM (inactive)
same,GI50,SF-268,> 10 µM (inactive)
same,GI50,SF-295,> 10 µM (inactive)
same,GI50,SF-539,> 10 µM (inactive)
same,GI50,SK-MEL-28,> 10 µM (inactive)
same,GI50,SK-MEL-5,> 10 µM (inactive)
same,GI50,SK-OV-3,> 10 µM (inactive)
same,GI50,SN12C,> 10 µM (inactive)
same,GI50,SNB-19,> 10 µM (inactive)
same,GI50,SNB-75,> 10 µM (inactive)
same,GI50,SR,> 10 µM (inactive)
same,GI50,SW-620,> 10 µM (inactive)
same,GI50,T47D,5.7 µM (inactive)
same,GI50,TK-10,> 10 µM (inactive)
same,GI50,UACC-257,> 10 µM (inactive)
same,GI50,UACC-62,> 10 µM (inactive)
same,GI50,UO-31,8.67 µM (inactive)
Cn1c(=O)[nH]c2sc3c(c2c1=N)CCCC3,GI50,786-0,> 75 µM (inactive)
same,GI50,A498,> 75 µM (inactive)
same,GI50,ACHN,> 75 µM (inactive)
same,GI50,BT-549,> 75 µM (inactive)
same,GI50,CAKI-1,> 75 µM (inactive)
same,GI50,COLO 205,> 75 µM (inactive)
same,GI50,DU-145,> 75 µM (inactive)
same,GI50,EKVX,54.7 µM (inactive)
same,GI50,HCC 2998,58.9 µM (inactive)
same,GI50,HCT-116,> 75 µM (inactive)
same,GI50,HCT-15,> 75 µM
same,GI50,HL-60,32.7 µM (inactive)
same,GI50,HOP-62,> 75 µM (inactive)
same,GI50,HT-29,> 75 µM (inactive)
same,GI50,Hs-578T,> 75 µM (inactive)
same,GI50,IGROV-1,> 75 µM (inactive)
same,GI50,K562,> 75 µM (inactive)
same,GI50,KM12,> 75 µM (inactive)
same,GI50,LOX IMVI,> 75 µM (inactive)
same,GI50,MCF7,> 75 µM (inactive)
same,GI50,MDA-MB-231,> 75 µM (inactive)
same,GI50,MDA-MB-435,> 75 µM (inactive)
same,GI50,MDA-N,> 75 µM (inactive)
same,GI50,MOLT-4,> 75 µM (inactive)
same,GI50,Malme-3M,> 75 µM (inactive)
same,GI50,NCI-H226,> 75 µM (inactive)
same,GI50,NCI-H23,> 75 µM (inactive)
same,GI50,NCI-H460,> 75 µM (inactive)
same,GI50,NCI-H522,> 75 µM (inactive)
same,GI50,NCI/ADR-RES,> 75 µM (inactive)
same,GI50,OVCAR-3,> 75 µM (inactive)
same,GI50,OVCAR-4,> 75 µM (inactive)
same,GI50,OVCAR-5,> 75 µM (inactive)
same,GI50,OVCAR-8,> 75 µM (inactive)
same,GI50,PC-3,> 75 µM (inactive)
same,GI50,RPMI-8226,50.1 µM (inactive)
same,GI50,RXF 393,> 75 µM (inactive)
same,GI50,SF-268,> 75 µM (inactive)
same,GI50,SF-295,> 75 µM (inactive)
same,GI50,SK-MEL-28,> 75 µM (inactive)
same,GI50,SK-MEL-2,0.199 µM (active)
same,GI50,SK-MEL-5,> 75 µM (inactive)
same,GI50,SN12C,> 75 µM (inactive)
same,GI50,SNB-19,> 75 µM (inactive)
same,GI50,SNB-75,> 75 µM (inactive)
same,GI50,SR,> 75 µM (inactive)
same,GI50,SW-620,> 75 µM (inactive)
same,GI50,T47D,> 75 µM (inactive)
same,GI50,TK-10,> 75 µM (inactive)
same,GI50,U-251,> 75 µM (inactive)
same,GI50,UACC-257,> 75 µM (inactive)
same,GI50,UACC-62,> 75 µM (inactive)
same,GI50,UO-31,> 75 µM (inactive)
